Reference: PMC11150675, “Simultaneous determination of multiple components in rat plasma by UPLC-MS/MS for pharmacokinetic studies after oral administration of Pogostemon cablin extract” (Frontiers in Pharmacology, 2024)
Like-named read-outs stand apart in the source and are kept apart here.

Assays:
[1] = PK study in rats after single oral administration of Pogostemon cablin (PC) extract, plasma analysed by UPLC-MS/MS; settings: for shape of plasma concentration-time curve: Figure 2; for detection in plasma after oral PC extract: no complete PK profile obtained
Experimental: (§1) The 100 μL plasma sample was combined with 20 μL of ME, 20 μL of IS (500 ng/mL), and 2.5 μL of FA, followed by vortexing for 1 min. This mixture underwent extraction with 600 μL ACN through vortexing at room temperature for 3 min. Subsequent to centrifugation at 14,000 rpm for a period of 10 min, the resulting supernatant was moved to another tube and dried under a stream of nitrogen. The dried residue was dissolved in 100 μL ME-ACN (50:50 v/v), followed by vortexing for 5 min, and subsequent centrifugation at 14,000 rpm for 10 min. Finally, 20 μL of the supernatant was used for analysis.
(§2) A concentration of 0.5 g/mL of PC extract was obtained by dissolving in 0.5% CMC-Na aqueous solution. The PC suspension of the 4.0 g/kg dose was given to rats by single oral administration. […] Subsequently, the plasma collected underwent centrifugation at a speed of 7000 rpm for a duration of 10 min. It was then moved to clean tubes and kept at a temperature of −80°C.
(§3) Data in this study was presented as the mean ± standard deviation (SD). The MassHunter Workstation software (version B.09.00, Agilent, United States) was utilized for determining the plasma levels of the 15 analytes. Additionally, PK parameters were analyzed using DAS 3.0 Software (Medical College of Wannan, China).

[2] = rat, in vivo, po, 4 g/kg
Experimental: as §1, §2, §3

[3] = rat plasma, PC extract 4.0 g/kg oral
[4] = rat plasma, PC extract 4.0 g/kg single oral dose, n = 6

Row | AUC ([1]; male, rat, plasma, po, 4 g/kg) [ng·h/mL] | AUC(0-inf) ([1]; male, rat, plasma, po, 4 g/kg) [ng·h/mL] | Cmax ([1]; male, rat, plasma, po, 4 g/kg) [ng/mL] | Tmax ([1]; male, rat, plasma, po, 4 g/kg) [min] | half-life ([1]; male, rat, plasma, po, 4 g/kg) [min] | Compound | also measured
1 | 384 ± 93.8 | 384 ± 93.8 | 109 ± 41.5 | 30 ± 18 | 174 ± 18 | C[C@@H]1O[C@@H](O[C@@H]2[C@@H](O)[C@H](OCCc3ccc(O)c(O)c3)O[C@H](COC(=O)/C=C/c3ccc(O)c(O)c3)[C@H]2O)[C@H](O)[C@H](O)[C@H]1O [Isoacteoside, isoacteoside] | 
2 | 243 ± 63.5 | 243 ± 63.5 | 47.8 ± 15.9 | 48 ± 12 | 120 ± 6 | COc1cc(O)c2c(=O)c(OC)c(-c3ccc(O)c(OC)c3)oc2c1 [Pachypodol, pachypodol] | shape of plasma concentration-time curve ([1]; rat plasma, PC extract oral): double-peak phenomenon
3 | 1310 | 1310 | 116 ± 36.8 | 84 ± 84 | 150 ± 6 | COc1cc(C(=O)O)ccc1O [Vanillic acid, vanillic acid] | 
4 | 1700 ± 394 | 1700 ± 394 | 554 ± 159 | 24 ± 18 | 156 ± 12.6 | C[C@@H]1O[C@@H](O[C@@H]2[C@@H](O)[C@H](OCCc3ccc(O)c(O)c3)O[C@H](CO)[C@H]2OC(=O)/C=C/c2ccc(O)c(O)c2)[C@H](O)[C@H](O)[C@H]1O [Verbascoside, verbascoside] | 
5 | 92.2 ± 33 | 92.2 ± 33 | 33 ± 14.6 | 54 ± 36 | 90 ± 12 | COc1cc(O)c2c(=O)c(OC)c(-c3ccc(OC)c(OC)c3)oc2c1 [Retusin, retusin] | 
6 |  |  |  |  |  | COc1ccc(-c2cc(=O)c3c(O)cc(O[C@@H]4O[C@H](CO)[C@@H](O)[C@H](O)[C@H]4O)cc3o2)cc1O [Diosmetin-7-O-β-D-glucopyranoside, diosmetin-7-O-β-D-glucopyranoside] | detection in plasma after oral PC extract [1, 3]: only detected in the initial plasma samples
7 |  |  |  |  |  | COc1cc(O)c2c(=O)c(O)c(-c3ccc(OC)c(O)c3)oc2c1 [Ombuin, ombuin] | AUC (0-tn) [1, 4]: 95.1 ± 28.1 µg·h/L; AUC (0-∞) [1, 4]: 95.4 ± 28.4 µg·h/L; Cmax [1, 4]: 11.2 ± 1.5 ng/mL; T1/2z [1, 4]: 3.8 ± 1.8 h; Tmax [1, 4]: 36 ± 12 min
8 |  |  |  |  |  | O=c1c(O[C@@H]2O[C@H](CO)[C@H](O)[C@H](O)[C@H]2O)c(-c2ccc(O)c(O)c2)oc2cc(O)cc(O)c12 [Hyperoside, hyperoside] | detection in plasma after oral PC extract [1, 3]: only detected in the initial plasma samples
9 |  |  |  |  |  | COc1ccc(-c2cc(=O)c3c(O)cc(O)cc3o2)cc1 [Acacetin, acacetin] | detection in plasma after oral PC extract [1, 3]: only detected in the initial plasma samples
10 |  |  |  |  |  | Cc1cc(O)c(C(=O)CCC(C)C)c(=O)o1 [Pogostone, pogostone] | concentration maximum (Cmax) [1, 3]: 37204.0 ± 10,901.0 ng/mL; AUC (0-tn) [1, 4]: 258294.0 ± 93,104.7 μg/L*h; AUC (0-∞) [1, 4]: 258320.9 ± 93120.6 µg·h/L; Cmax [1, 4]: 37204.0 ± 10,901.0 μg/L; T1/2z [1, 4]: 0.8 ± 0.5 h; Tmax [1, 4]: 114 ± 78 min; area-under-the-curve (AUC) compared with other constituents ([1]; rat plasma, PC extract oral): significantly exceeded that of the other constituents
11 | 255 ± 65.5 | 255 ± 65.5 | 64.2 ± 15.8 | 18 ± 12 | 162 ± 36 | O=c1cc(-c2ccc(O)cc2)oc2cc(O)cc(O)c12 [Apigenin, apigenin] | shape of plasma concentration-time curve ([1]; rat plasma, PC extract oral): double-peak phenomenon
12 |  |  |  |  |  | O=c1cc(-c2ccc(O)cc2)oc2cc(O[C@@H]3O[C@H](CO)[C@@H](O)[C@H](O)[C@H]3O)cc(O)c12 [Cosmosiin, cosmosiin] | T1/2z [2]: 3.7 ± 0.6 h
13 |  |  |  |  |  | O=c1cc(-c2ccc(O)cc2)oc2c([C@@H]3O[C@H](CO)[C@@H](O)[C@H](O)[C@H]3O)c(O)c([C@@H]3O[C@H](CO)[C@@H](O)[C@H](O)[C@H]3O)c(O)c12 [Vicenin-2, vicenin-2] | AUC (0-tn) [1, 4]: 968.0 ± 131.9 µg·h/L; AUC (0-∞) [1, 4]: 968.8 ± 132.9 µg·h/L; Cmax [1, 4]: 249.4 ± 50.8 ng/mL; T1/2z [1, 4]: 1.2 ± 0.6 h; Tmax [1, 4]: 18 ± 6 min
14 |  |  |  |  |  | O=c1cc(-c2ccc(O)cc2)oc2c([C@@H]3O[C@H](CO)[C@@H](O)[C@H](O)[C@H]3O)c(O)cc(O)c12 [Vitexin, vitexin] | detection in plasma after oral PC extract [1, 3]: only detected in the initial plasma samples
